Inhibition data for 16 compounds are collected here from ChEMBL document CHEMBL4265965, “Dichloroacetophenones targeting at pyruvate dehydrogenase kinase 1 with improved selectivity and antiproliferative activity: Synthesis and structure-activity relationships” (Bioorg Med Chem Lett, 2018).

The source made the active and inactive calls. The calls are words filed in the database; no cut-off is given here.

The test system of test [1] is NCI-H1975. Put plainly: Antiproliferative activity against human NCI-H1975 cells assessed as inhibition of cell proliferation at 12 uM after 72 hrs by MTT assay relative to control. The settings on record: for inhibition at 12 µM: NCI-H1975, 72 h. The format is functional.
The subject of test [2] is NCI-H1975. In words: Antiproliferative activity against human NCI-H1975 cells assessed as inhibition of cell proliferation at 6 uM after 72 hrs by MTT assay relative to control. The test is classed as functional. The note with it: for inhibition at 6 µM: NCI-H1975, 72 h. On the technique in general: Tetrazolium dyes change colour on reduction, which living cells bring about.

Test [3] relates to NCI-H1975. Put plainly: Antiproliferative activity against human NCI-H1975 cells assessed as inhibition of cell proliferation at 2 uM after 72 hrs by MTT assay relative to control. The format is functional. The note with it: for inhibition at 2 µM: NCI-H1975, 72 h.
Test [4] deals with NCI-H1650. In words: Antiproliferative activity against human NCI-H1650 cells assessed as inhibition of cell proliferation at 12 uM after 72 hrs by MTT assay relative to control. The test is classed as functional. The settings on record: for inhibition at 12 µM: NCI-H1650, 72 h.
The test system of test [5] is NCI-H1650. In words: Antiproliferative activity against human NCI-H1650 cells assessed as inhibition of cell proliferation at 6 uM after 72 hrs by MTT assay relative to control. The test is classed as functional. The note with it: for inhibition at 6 µM: NCI-H1650, 72 h.
For test [6], the system named is NCI-H1650. Put plainly: Antiproliferative activity against human NCI-H1650 cells assessed as inhibition of cell proliferation at 2 uM after 72 hrs by MTT assay relative to control. The test is classed as functional. The settings on record: for inhibition at 2 µM: NCI-H1650, 72 h.
Test [7] relates to A549. In words: Antiproliferative activity against human A549 cells assessed as inhibition of cell proliferation at 12 uM after 72 hrs by MTT assay relative to control. The format is functional. The note with it: for inhibition at 12 µM: A549, 72 h.
The subject of test [8] is A549. Put plainly: Antiproliferative activity against human A549 cells assessed as inhibition of cell proliferation at 6 uM after 72 hrs by MTT assay relative to control. The format is functional. The settings on record: for inhibition at 6 µM: A549, 72 h.
Test [9] deals with A549. In words: Antiproliferative activity against human A549 cells assessed as inhibition of cell proliferation at 2 uM after 72 hrs by MTT assay relative to control. The note with it: for inhibition at 2 µM: A549, 72 h. The test is classed as functional.
The species named for test [10] is Sus scrofa. Put plainly: Inhibition of porcine PDK1 assessed as activation of pyruvate dehydrogenase complex at 1 uM measured after 3 mins.
Test [11] addresses [Pyruvate dehydrogenase (acetyl-transferring)] kinase isozyme 1, mitochondrial (Homo sapiens, UniProt Q15118). Put plainly: Inhibition of recombinant human N-terminal His6/Sumo-tagged PDK1 (29 to 436 residues) expressed in Escherichia coli BL21 at 1 uM by kinase-glo luminescence assay relative to control. In general terms: In Kinase-Glo more light means more ATP remaining.

With `O=C(c1ccc(OCCCCBr)c([N+](=O)[O-])c1)C(Cl)Cl`, the inhibition at 12 µM in test [1] amounted to 86.7%; in [4], 66.7%; in [7], 72.9%. Also, the inhibition at 6 µM in [2] came to 54.7%; in test [5], 38.8%; in test [8], 33.4%. For the same compound, the inhibition at 2 µM in test [3] came to 15%; in [6], 21.8%; in test [9], 5.7%. Also, the inhibition result in test [10] and in test [11] was “Active” throughout.
`COc1ccc(C(=O)C(Cl)Cl)cc1[N+](=O)[O-]`: the figures for the inhibition at 12 µM in [1], in [4] and in test [7] were 97.4%, 97.2% and 81.8%, respectively. Further, the inhibition at 6 µM turned out to be 89.4% in test [2], 75.7% in test [5] and 46.7% in test [8]. Also, the inhibition at 2 µM in test [3] turned out to be 22.3%; in [6], 30%; in test [9] it was 17.7%. Moreover, the inhibition entry in test [10] and in test [11] was “Active” throughout.
Take `O=C(c1cccnc1)C(Cl)Cl`: the inhibition at 12 µM in test [1] was 52%; in [4], 56.5%. Besides, the inhibition at 6 µM was 9.3% in test [2] and 29.1% in [5]. In addition, the inhibition entry in test [3], in [6], in test [7], in [8], in test [9] and in test [10] was “inactive” throughout. The inhibition result in test [11] is “inactive”.
In the case of `O=C(c1ccc(OCCBr)c([N+](=O)[O-])c1)C(Cl)Cl`, the inhibition at 12 µM in test [1] stood at 80%; in test [4], 23%; in test [7], 63.7%. Besides, the inhibition at 6 µM came to 53.2% in [2] and 24.5% in test [8]. In addition, the figures for the inhibition at 2 µM in test [3] and in test [9] were 15.2% and 9.5%, respectively. In addition, the inhibition result in test [5] and in [6] was “inactive” each time. The inhibition entry in [10] and in [11] was “Active” in each case.
`O=C(c1ccc(OCc2ccccc2)c([N+](=O)[O-])c1)C(Cl)Cl`: the inhibition at 12 µM amounted to 99% in test [1], 67.3% in test [4] and 99.3% in test [7]. In addition, the inhibition at 6 µM stood at 98.6% in test [2], 29.9% in test [5] and 87.9% in test [8]. The values for the inhibition at 2 µM in [3] and in [9] were 58.4% and 29.9%, respectively. Moreover, in [6], the inhibition result was “inactive”. The inhibition entry in test [10] and in test [11] was “Active” each time.
As to `O=C(c1ccc(OCCCBr)c([N+](=O)[O-])c1)C(Cl)Cl`, the results for the inhibition at 12 µM in test [1], in [4] and in test [7] were 99%, 74.6% and 97.7%, respectively. The inhibition at 6 µM is 94.5% in test [2], 48.1% in [5] and 84.3% in test [8]. The inhibition at 2 µM is 60.8% in test [3], 11.5% in [6] and 26.8% in test [9]. The inhibition result in test [10] and in test [11] was “Active” throughout.
With `O=C(c1ccco1)C(Cl)Cl`, the inhibition at 12 µM in test [1] worked out at 94.5%; in test [4], 85.7%; in test [7], 79.8%. Also, the results for the inhibition at 6 µM in [2], in [5] and in test [8] were 58.6%, 48.9% and 35.8%, respectively. In addition, the inhibition at 2 µM was found to be 31.2% in test [3], 21.4% in [6] and 8.9% in test [9]. The inhibition in test [10] was determined as 2.5%. Moreover, the inhibition result in test [11] is “inactive”.
With `O=C(c1ccncc1)C(Cl)Cl`, the inhibition at 12 µM in [1] stood at 91.7%; in test [4] it was 80.3%; in test [7] it was 21.3%. Also, the values for the inhibition at 6 µM in test [2], in test [5] and in test [8] were 41.6%, 34.4% and 6.6%, respectively. Further, the inhibition at 2 µM in test [3] came out at 2.29%; in test [6] it was 15.6%; in test [9], 2.1%. Also, in test [10], the inhibition turned out to be 8.9%. In [11], the inhibition entry was “inactive”.
For `O=C(c1cccs1)C(Cl)Cl`, the inhibition at 12 µM in test [1] is 95.8%; in [4] it was 73.4%; in [7], 71.1%. For the same compound, the inhibition at 6 µM came out at 62.1% in test [2], 42.5% in [5] and 34.7% in test [8]. Also, the figures for the inhibition at 2 µM in test [3], in test [6] and in [9] were 26.8%, 16.8% and 6.9%, respectively. The inhibition in [10] is 3.9%. Further, in [11], the inhibition result is “inactive”.
As for `CC(C)Oc1ccc(C(=O)CCl)cc1[N+](=O)[O-]`, the values for the inhibition at 12 µM in [1], in [4] and in test [7] were 85.6%, 51.4% and 38.9%, respectively. Also, the inhibition at 6 µM in test [2] is 27.7%; in [5], 24.8%; in test [8] it was 14.8%. The inhibition entry in test [3], in test [6] and in test [9] was “inactive” each time. Besides, the inhibition entry in [10] and in test [11] was “Active” in each case.
On to `Cc1ccccc1NC(=O)C(Cl)Cl`, for which the inhibition at 12 µM in test [1] came out at 22.9%; in [4] it was 15.4%; in test [7], 13.2%. For the same compound, the inhibition at 6 µM in [2] turned out to be 19.5%; in test [5] it was 14.5%; in test [8], 9.9%. Besides, the inhibition entry in [3], in test [6], in test [9], in [10] and in [11] was “inactive” in each case.
For the compound `CCCCCCOc1ccc(C(=O)C(Cl)Cl)cc1[N+](=O)[O-]`, the values for the inhibition at 12 µM in test [1], in [4] and in test [7] were 98.3%, 99.7% and 83.1%, respectively. Further, the inhibition at 6 µM in [2] amounted to 51.7%; in [5], 53.1%; in [8], 33.4%. Further, the figures for the inhibition at 2 µM in test [3], in test [6] and in test [9] were 5.7%, 3.6% and 1.2%, respectively. Besides, the inhibition entry in test [10] and in test [11] was “Active” throughout.
`O=C(c1ccc(OCCCCCBr)c([N+](=O)[O-])c1)C(Cl)Cl`: the inhibition at 12 µM was determined as 99.7% in test [1], 78.6% in test [4] and 69.7% in test [7]. The inhibition at 6 µM is 49.8% in test [2], 39.7% in test [5] and 29.4% in test [8]. Besides, the inhibition at 2 µM in [3] and in [9] was 6.9% throughout. Besides, the inhibition entry in [6] is “inactive”. The inhibition entry in test [10] and in test [11] was “Active” throughout.
Consider `O=C(c1cccnc1)C(Cl)(Cl)Cl`, for which the inhibition entry in test [1], in test [2], in test [3], in test [4], in test [5] and in test [6] was “inactive” throughout. The inhibition result in test [7], in [8], in test [9], in [10] and in [11] was “inactive” in each case.
In the case of `CCCCOc1ccc(C(=O)C(Cl)Cl)cc1[N+](=O)[O-]`, the values for the inhibition at 12 µM in test [1], in [4] and in test [7] were 98.9%, 63.1% and 95.2%, respectively. Also, the inhibition at 6 µM was found to be 96.3% in test [2], 28.8% in test [5] and 79.9% in [8]. For the same compound, the inhibition at 2 µM in test [3] was determined as 55.7%; in test [9] it was 28.3%. In [6], the inhibition entry was “inactive”. Also, the inhibition entry in [10] and in test [11] was “Active” each time.
`CCOc1ccc(C(=O)C(Cl)Cl)cc1[N+](=O)[O-]`: the inhibition at 12 µM worked out at 98.2% in test [1], 99.3% in [4] and 99% in test [7]. Besides, the values for the inhibition at 6 µM in test [2], in test [5] and in test [8] were 94.1%, 88% and 88%, respectively. In addition, the inhibition at 2 µM in [3] is 62.3%; in test [6], 57.3%; in [9], 37.8%. The inhibition result in test [10] and in test [11] was “Active” each time.

One may read the inhibition as the relative decrease from the control value, in per cent.
